Values quoted from earlier work in patent US12485133B2, “Inhaled ivermectin” (Hovione Scientia Limited, priority 2021, dated 2025).

Tests used:
[1] = not given; remark: listed apart in the source
SARS-Cov-2 = details: incubated with 5 μM Ivermectin
[2] = not given; remark: listed apart in the source

Ivermectin
solubility in non-polar aprotic solvents such as hexane (hexane): completely insoluble | solubility in methanol and 95% ethanol (methanol, 95% ethanol): freely soluble | solubility in water (water): < 1 µg/mL | Log P [1]: 4.4 | time to eliminate the virus from supernatant and infected cells (SARS-Cov-2): ≤ 48 h | stability under acidic and basic aqueous conditions ([2]; acidic and basic aqueous conditions): degrades | optimal pH for stability ([2]; aqueous conditions): 6.3 | solid state stability (degradation in drug substance batches) ([2]; solid state, 37° C. for 1.5 years): no degradation observed
